Reference: US20260014204A1, “STEM CELL-DRUG CARRIER COMPRISING MELATONIN-CONTAINING DRUG CARRIER AND STEM CELL AND USES THEREOF” (priority 2024, published 2026)

Test system: small intestine epithelial organoids
Assay: Flow cytometry of Ly6a-expressing cells, comparison by drug type
Format: cell-based
Conditions: drug applied together with stem cells (summary statement)
Protocol: In the art, quercetin is known as a therapeutic agent for inflammatory bowel disease. Accordingly, in Example 4, the revival stem cell induction ability of heterospheroids (hereinafter referred to as ‘Mel-HS’) including melatonin microspheres and 3D mesenchymal stem cells prepared in Example 1-1; and heterospheroids (hereinafter referred to as ‘Q-HS’) including quercetin microspheres and 3D mesenchymal stem cells was compared. The Q-HS was prepared by the same method as Example 1-1, but using quercetin instead of melatonin. Mel-HS was treated in small intestine epithelial organoids and then co-cultured for 48 hours. After culturing, cells expressing a revival stem cell marker Ly6a of the small intestine epithelial organoids were analyzed by flow cytometry. In addition, a Q-HS-treated group was also performed in the same manner as described above. As a control group for the experiment, 2D mesenchymal stem cells (2D) or 3D mesenchymal stem cells (3D) were treated. The flow cytometry results of the Mel-HS-treated group were shown in FIG. 4A, and the flow cytometry results of the Q-HS-treated group were shown in FIG. 4B.

Row | SMILES | induction of revival stem cells
1 | COc1ccc2[nH]cc(CCNC(C)=O)c2c1 [melatonin] | induced revival stem cells
2 | O=c1c(O)c(-c2ccc(O)c(O)c2)oc2cc(O)cc(O)c12 [quercetin] | no significant effect
